Measurements as given in paper PMC11825922, “Molecular interactions, structural effects, and binding affinities between silver ions (Ag^+) and amyloid beta (Aβ) peptides” (Scientific Reports, 2025).
Like-named read-outs stand apart in the source and are kept apart here.

What was measured:
Aβ peptides = conditions: cited from earlier work
Aβ40 peptide = target: T1, Aβ40 peptide (Homo sapiens, UniProt P05067); test: CD spectroscopy on Aβ secondary structure; conditions: 10 µM Aβ40, 20 mM phosphate buffer pH 7.3, 16–256 µM AgNO3, 20 °C
T1 construct: Aβ(1–40) and Aβ(1–42), here abbreviated Aβ40 and Aβ42; purchased AlexoTech AB (Umeå, Sweden)
Protocol: Circular dichroism (CD) spectroscopy was performed with a Chirascan CD instrument (Applied Photophysics Ltd., U.K.) using a quartz cuvette with 2 mm pathlength containing 600 µL of 10 µM Aβ40 peptide in 20 mM phosphate buffer, pH 7.3. CD spectra were recorded at 20 °C between 190 and 260 nm, with 0.5 nm step size. One sample contained only Aβ40 in buffer, while another sample contained also 50 mM SDS detergent, in order to mimic a membrane environment. To both samples, AgNO3 was added in steps of 16 µM, 56 µM, and 256 µM. The Chirascan Pro-Data v.4.4.1 software (Applied Photophysics Ltd., U.K.) was used to process the recorded spectra with an eight points smoothing filter (Savitzky-Golay).
Figure 3 CD spectra of 10 μM Aβ40 peptide in 20 mM phosphate buffer, pH 7.3. AgNO3 was titrated to the peptide, either in (A): buffer only, or (B): with 50 mM SDS present. Black: Aβ40 in buffer. Orange: + 50 mM SDS (in B only). Red: + 16 µM AgNO3. Green: + 56 µM AgNO3. Blue: + 256 µM AgNO3.

wt Aβ40 peptide = target: T2, wt Aβ40 peptide (Homo sapiens, UniProt P05067); test: Tyr10 intrinsic fluorescence quenching titration with AgNO3, Morrison equation fit; assay type: binding; conditions: 20 mM MES buffer, 20 °C, read-out: Mean KD^App value
T2 construct: Aβ(1–40) and Aβ(1–42), here abbreviated Aβ40 and Aβ42; purchased AlexoTech AB (Umeå, Sweden)
Protocol: A Jobin Yvon Horiba Fluorolog 3 fluorescence spectrophotometer (Longjumeau, France) was used to record the fluorescence emission intensity at 305 nm (excitation wavelength 276 nm) for samples of 10 µM Aβ peptide in 20 mM MES buffer, using a quartz cuvette with 4 mm path length at 20 °C. Measurements were carried out at pH 7.2 for different Aβ variants, i.e. Aβ40, Aβ40(NoHis) mutant, Aβ40(H6A) mutant, and Aβ(4–40). For Aβ40, measurements were carried out also at pH 5.3, and at pH 7.2 in the presence of 50 mM SDS detergent. AgNO3 was titrated to the samples using stock solutions of 1 mM, 2 mM, and 10 mM. The measured tyrosine fluorescence intensities were plotted against the concentration of Ag^+ ions, and dissociation constants were evaluated by fitting the data curves to Eq. (1), i.e. the Morrison Equation [94]:1 I=I0+I∞-I0/2·Aβ·KD+Ag+Aβ-KD+Ag+Aβ^2-4·Ag·Aβ
Here, I0 is the initial fluorescence intensity with no added Ag^+ ions, I∞ is the steady-state intensity at the end of the titration, [Ag] is the concentration of added Ag^+ ions, KD is the dissociation constant, and [Aβ] is the concentration of Aβ peptide. […] Adding a linear term for the fluorescence quenching effect of free Ag^+ ions was considered unnecessary. […]
It is previously known that Ag^+ ions can quench the intrinsic fluorescence of amino acids such as tyrosines, including the Tyr10 residue in Aβ peptides. […]

Aβ42 oligomers [1] = target: T3, Aβ42 oligomers (Homo sapiens, UniProt P05067); test: FTIR spectroscopy of SDS-stabilized Aβ42 oligomers; conditions: 0–500 µM AgNO3; FTIR with BN-PAGE
T3 construct: Synthetic lyophilized wildtype (wt) Aβ(1–42) peptide, abbreviated Aβ42; purchased JPT Peptide Technologies GmbH (Germany); host or cells: chemical synthesis
Protocol: (§1) The Aβ42 monomers were then used to prepare SDS-stabilized Aβ42 oligomers of approximately tetrameric size, using a previously published protocol[83] with the following modifications: the oligomers were prepared in D2O, at four-fold lower peptide concentration, and without the original dilution step[85]. The reaction mixture (100–120 μM Aβ42 in D2O-based PBS, containing 0.2% (6.9 mM) SDS) was incubated at 37 °C for 24 h together with either 0, 10, 100, or 500 µM AgNO3, respectively, and then flash-frozen in liquid N2 and stored at –20 °C for later analysis.
Fourier-transform infrared (FTIR) spectra of SDS-stabilized Aβ42 oligomers (prepared as described in Section “Preparation of Aβ42 oligomers” with 0–500 µM AgNO3) were recorded in transmission mode on a Tensor 37 FTIR spectrometer (Bruker Optik GmbH., Germany) equipped with a […] and a liquid nitrogen-cooled MCT detector. The unit was continuously purged with dry air during the measurements. […] The sample shuttle allowed sample and reference spectra to be recorded without opening the chamber. FTIR spectra were recorded at room temperature in the 1900–800 cm^–1 range, using 6 mm aperture, 2 cm^–1 resolution, a zero-filling factor of two, and 300 scans for both background and sample spectra. […] All spectra were analyzed and plotted using the OPUS 5.5 software. Second derivatives were calculated with a 17 cm^–1 smoothing factor. […]

Aβ40 peptide fibrils = target: T4, Aβ40 peptide fibrils (Homo sapiens, UniProt P05067); test: AFM imaging of Aβ40 aggregates after 72 h incubation; conditions: 30 µM AgNO3, 10 µM Aβ40, 72 h, 37 °C, 5 mM MES pH 7.3
T4 construct: Aβ(1–40) and Aβ(1–42), here abbreviated Aβ40 and Aβ42; purchased AlexoTech AB (Umeå, Sweden)
Protocol: Samples for AFM imaging were produced by incubating 10 µM Aβ40 peptides in 5 mM MES buffer, pH 7.3, for 72 h at 37 °C with continuous shaking at 350 rpm together with different amounts of AgNO3, i.e. 0 µM; 2.5 µM; 5 µM; and 30 µM (corresponding to Ag^+:Aβ ratios of 0:1; 1:4; 1:2; and 3:1, respectively). The incubated samples were placed as 1 µL droplets on fresh silicon wafers (Siegert Wafer GmbH, Germany). After 2 min, 10 µL of Milli-Q water was added to the droplets, and then a lint-free wipe was used to remove all excess fluid. Next, the wafers were left to air-dry in a container, covered to protect from dust, and later the same day AFM images were recorded. A neaSNOM AFM unit (Neaspec GmbH, Germany) was used, running in tapping mode (Ω: 280 kHz, tapping amplitude 50–55 nm) and equipped with Pt/Ir-coated monolithic ARROW-NCPt Si tips (NanoAndMore GmbH, Germany) where the tip radius was less than 10 nm. Both topographic and mechanical phase images were recorded for 2.5 × 2.5 µm scanning areas (pixel size 200 × 200) with a scan speed of 2.5 ms/pixel. The images were minimally processed to perform basic plane levelling using the Gwyddion software.
Figure 4 AFM images for 10 µM Aβ40 peptides together with different concentrations of AgNO3, incubated with agitation for 72 h at 37 °C in 5 mM MES buffer, pH 7.3. (A) 0 µM AgNO3; (B) 2.5 µM AgNO3; (C) 5 µM AgNO3; (D) 30 µM AgNO3. […]

Aβ42 oligomers [2] = target: T3, Aβ42 oligomers; test: BN-PAGE analysis of SDS-stabilized Aβ42 oligomers; conditions: 10, 100, 500 µM AgNO3, 100–120 µM Aβ42, 0.2% SDS, 37 °C 24 h
Protocol: as §1
Homogeneous solutions of SDS-stabilized Aβ42 oligomers, prepared as described in Section “Preparation of Aβ42 oligomers” with either 0, 10, 100, or 500 µM silver nitrate, were analyzed with BN-PAGE using the Invitrogen system (ThermoFisher Scientific, USA). For this purpose, 4–16% Bis–Tris Novex gels (ThermoFisher Scientific, USA) were loaded with 10 μL of samples containing either Aβ42 monomers or Aβ42 oligomers with increasing concentrations of silver, calibrated against the Amersham High Molecular Weight calibration kit for native electrophoresis (GE Healthcare, USA). The gel was first run at 4 °C for 90 min and then stained with the Pierce Silver Staining kit according to the manufacturer’s instructions (ThermoFisher Scientific, USA). […]

T3 sequence (P05067 672-713 limits assumed): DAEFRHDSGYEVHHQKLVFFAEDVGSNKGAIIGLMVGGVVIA
T2 sequence (P05067 672-711 limits assumed): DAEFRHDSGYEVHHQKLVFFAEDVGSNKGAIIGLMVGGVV
T4 sequence (P05067 672-711 limits assumed): as above
T1 sequence (P05067 672-711 limits assumed): as above

Compound: [Zn+2] [Zn^2+]
- Kd (Aβ peptides; read-out: Binding affinity): 1 to 50 µM

Compound: [Cu+2] [Cu^2+]
- Binding affinity (Aβ peptides): sub-micromolar
- Kd (Aβ peptides; fluorescence measurements, read-out: Binding affinity for the Aβ·Cu^2+ complex, corrected for buffer effects): ~0.001 µM

Compound: monovalent silver ions (Ag^+)
- Effect on Aβ40 secondary structure (CD) (Aβ40 peptide): slightly increased β-sheet structure
- Kd (wt Aβ40 peptide; Aβ40 pH 7.2 + 50 mM SDS): 25 µM
- Kd (wt Aβ40 peptide; Aβ40 pH 7.2, 10 µM peptide): 25 µM
- Effect on size, secondary structure, β-sheet planarity and number of strands of Aβ42 oligomers (Aβ42 oligomers [1]): no significant effect
- Effect on Aβ40 fibril morphology (AFM) (Aβ40 peptide fibrils): much more tangled together
- Average sizes, amounts and size distributions of Aβ42 oligomers versus without silver (Aβ42 oligomers [2]): approximately the same

Compound: [Ni+2] [Ni^2+]
- Kd (Aβ peptides; read-out: Binding affinity): 1 to 50 µM
